In publication PMC10348910, “Epigenetic reprogramming of cell cycle genes by ACK1 promotes breast cancer resistance to CDK4/6 inhibitor” (Oncogene, 2023):

Tests used:
Format in all cases: cell-based
phospho-serine 139-γH2AX = assay: γH2AX immunocytochemistry; conditions: breast cancer cell lines, 48h
Protocol: Breast cancer cells were grown over coverslips and treated with vehicle or (R)-9b. The cells were fixed in 2% paraformaldehyde and permeabilized. The cells were stained with phospho-serine 139-γH2AX antibody (Red), phalloidin (green) and DAPI. Fluorescent microscopic images were captured. […]
breaks in breast cancer cell lines
Breast cancer cell lines were treated with either vehicle or (R)-9b for 48h and stained with phospho-serine 139-γH2AX antibody (Red), phalloidin (green) and DAPI. Representative images of fluorescent microscopic analysis are shown.

CDK1, CDK2 and WEE1 mRNA = assay: qRT-PCR of CDK1, CDK2 and WEE1; conditions: MCF-7 and MDA-MB-453; overnight
Protocol: Real-time quantitative PCR analyses were performed using the ABI PRISM 7900HT Sequence Detection System (Applied Biosystems) as described earlier. Briefly, the PCR was carried out with SYBR Green PCR Master Mix (Applied Biosystems) using 2 µl of cDNA (or ChIP DNA) and the primers in a 20 µl final reaction mixture. Dissociation curves were generated for each plate to verify the integrity of the primers. Data were analyzed using SDS software version 2.2.2 and exported into an Excel spreadsheet. The 18S or Actin data were used for normalizing the gene values. The sequences for the primers are in Supplementary Table 12.
Supplementary Figure S9: Effect of ACK1 inhibition on CDKs and WEE1.
RNA from breast cancer cells treated with vehicle or varying concentrations of (R)-9b overnight were subjected to qRT-PCR using CDK1, CDK2 and WEE1 primers. 18S rRNA was used as housekeeping control. Data are represented as the mean ± SEM from 2 biologically independent experiments. *p<0.05, **p<0.01, ***p<0.001, unpaired two-tailed Student’s t-test.

[1] = test system: normal breast cell line, MCF10A; assay: proliferation assay, trypan blue exclusion; conditions: Homo sapiens, MCF-10A, 96 h
Protocol: (§1) Fig. 2 ACK1 regulates breast cancer transcriptome, affecting genes implicated in cell cycle progression. A Chemical structure of (R)-9b. B Breast cancer cell lines were treated with either vehicle or (R)-9b overnight and cell lysates were subjected to immunoprecipitation using ACK1 antibody, followed by immunoblotting with pY284-ACK1 antibody. Lysates were also subjected to immunoblotting with total ACK1 and Actin antibodies, shown in the lower panels. […] C Breast cancer cell lines were treated with varying concentrations of (R)-9b for 96 h and the cell proliferation was measured using Trypan Blue exclusion method. […]
(§2) For proliferation assay, 5 × 10^4 cells were plated in 6-well plate and treated with either vehicle (DMSO) or varying concentrations of (R)-9b or palbociclib in complete media for 96 h and number of viable cells were counted by trypan blue exclusion assay. […] The cells were acquired using the BD FACSCalibur machine (BD Biosciences) and data was analyzed using FlowJo software. […] The data were analyzed using FlowJo software.
(§3) No data was excluded from the analysis. […] Data were expressed as the mean ± SEM. Data between two groups were analyzed with unpaired Student’s t tests using Graphpad Prism (Graphpad Software Inc, California, USA). […]

breast cancer cell lines = assay: proliferation assay, trypan blue exclusion; conditions: 96 h
Protocol: as §1, §2, §3

[2] = test system: CCNB1, CCNB2 and CDC20 mRNA; assay: qRT-PCR of CCNB1, CCNB2 and CDC20 in breast cancer cells; conditions: MCF7, MDA-MB-453, SKBR3 and HCC-1395 cells; overnight
Protocol: as §1, with “method. D–H RNA from breast cancer cells treated with vehicle or varying concentrations of (R)-9b overnight, and were subjected to qRT-PCR using CCNB1, CCNB2 and CDC20 primers. Actin or 18S rRNA was used as housekeeping control. For (B), representative images of three independent experiments are shown. For (C), a four parameter, variable slope, non-linear regression curve was computed, representing three independent experiments.” for “method.”
Real-time quantitative PCR analyses were performed using the ABI PRISM 7900HT Sequence Detection System (Applied Biosystems) as described earlier. […] Data were analyzed using SDS software version 2.2.2 and exported into an Excel spreadsheet. […]

In the case of `CN1CCN(c2ccc(Nc3ncc(Cl)c(NC[C@H]4CCCO4)n3)cc2)CC1` [(R)-9b], the “γH2AX staining (DNA damage, double strand breaks)” value (phospho-serine 139-γH2AX) is reported as “poor γH2AX staining”, the “CDK1 and 2, and WEE1 expression” value (CDK1, CDK2 and WEE1 mRNA) is reported as “affected” and the IC50 [1] is reported as 1.49 µM. For the same compound, the IC50 (breast cancer cell lines) was 0.25 to 1.22 µM and the “CCNB1, CCNB2 and CDC20 mRNA transcripts” value [2] was “significant downregulation”.
